Legend:
Assay in all cases: relative viability (nuclei count vs DMSO), 5 days (fraction); higher = more cells survive
[1] = tested on: NCI-H1755
Method in brief: (§1)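 Relative viability was taken as the ratio of nuclei in treated wells to nuclei in vehicle wells. Lung cancer cell lines in 1536-well plates received compounds by pin tool one day after seeding, either one drug alone or a fixed anchor-drug dose plus five library-drug doses (not always all listed) in √10 steps. Nuclei were counted on 4× images after 5 days of treatment, and values are medians of duplicate plates.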

[2] = tested on: NCI-H522
Method in brief: as §1

[3] = tested on: NCI-H2170
Method in brief: as §1

[4] = tested on: PC-14
Method in brief: as §1

[5] = tested on: HOP-62
Method in brief: as §1

[6] = tested on: COR-L 105
Method in brief: as §1

[7] = tested on: NCI-H1734
Method in brief: as §1

[8] = tested on: NCI-H1395
Method in brief: as §1

[9] = tested on: SK-MES-1
Method in brief: as §1

[10] = tested on: NCI-H2342
Method in brief: as §1

[11] = tested on: UMC-11
Method in brief: as §1

[12] = tested on: NCI-H647
Method in brief: as §1

[13] = tested on: NCI-H2347
Method in brief: as §1

[14] = tested on: NCI-H1793
Method in brief: as §1

[15] = tested on: NCI-H1355
Method in brief: as §1

[16] = tested on: NCI-H2228
Method in brief: as §1

[17] = tested on: HARA
Method in brief: as §1

[18] = tested on: NCI-H2009
Method in brief: as §1

[19] = tested on: NCI-H358
Method in brief: as §1

[20] = tested on: NCI-H838
Method in brief: as §1

[21] = tested on: COR-L23
Method in brief: as §1

[22] = tested on: NCI-H322M
Method in brief: as §1

[23] = tested on: EKVX
Method in brief: as §1

[24] = tested on: NCI-H1993
Method in brief: as §1

Q: Which relative viability ([1]; first compound 0.04 µM) does the source give for `COc1cc(N2CCC(C(N)=O)CC2)ccc1Nc1nc(N)c(Cl)c(Nc2ccccc2S(=O)(=O)C(C)C)n1` [HG-5-88-01] + COc1cccc2cc(-c3nc([C@H]4CC[C@H](C(=O)O)CC4)n4ncnc(N)c34)[nH]c12 [OSI-027] (partner 0.5 µM) here?
A: 0.722

Q: And the relative viability ([1]; first compound 0.1265 µM)?
A: 0.731

Q: And the relative viability ([1]; first compound 0.4 µM)?
A: 0.677

Q: What about the relative viability ([1]; first compound 1.265 µM) of the same molecule?
A: 0.686

Q: And the relative viability ([1]; first compound 4 µM)?
A: 0.434

Q: What about the relative viability ([2]; first compound 0.04 µM) of the same molecule?
A: 0.641

Q: And the relative viability ([2]; first compound 0.1265 µM)?
A: 0.634

Q: And the relative viability ([2]; first compound 0.4 µM)?
A: 0.66

Q: And the relative viability ([2]; first compound 1.265 µM)?
A: 0.579

Q: And the relative viability ([2]; first compound 4 µM)?
A: 0.61

Q: And the relative viability ([3]; first compound 0.04 µM)?
A: 0.716

Q: And the relative viability ([3]; first compound 0.1265 µM)?
A: 0.764

Q: And the relative viability ([3]; first compound 0.4 µM)?
A: 0.721

Q: What about the relative viability ([3]; first compound 1.265 µM) of the same molecule?
A: 0.238

Q: What about the relative viability ([3]; first compound 4 µM) of the same molecule?
A: 0.601

Q: What about the relative viability ([4]; first compound 0.04 µM) of the same molecule?
A: 0.849

Q: What about the relative viability ([4]; first compound 0.1265 µM) of the same molecule?
A: 1.12

Q: And the relative viability ([4]; first compound 0.4 µM)?
A: 0.65

Q: And the relative viability ([4]; first compound 1.265 µM)?
A: 0.321

Q: What about the relative viability ([4]; first compound 4 µM) of the same molecule?
A: 0.218

Q: What about the relative viability ([5]; first compound 0.04 µM) of the same molecule?
A: 0.726

Q: And the relative viability ([5]; first compound 0.1265 µM)?
A: 0.949

Q: And the relative viability ([5]; first compound 0.4 µM)?
A: 0.828

Q: And the relative viability ([5]; first compound 1.265 µM)?
A: 0.856

Q: And the relative viability ([5]; first compound 4 µM)?
A: 0.737

Q: What about the relative viability ([6]; first compound 0.04 µM) of the same molecule?
A: 0.616

Q: What about the relative viability ([6]; first compound 0.1265 µM) of the same molecule?
A: 0.776

Q: And the relative viability ([6]; first compound 0.4 µM)?
A: 0.531

Q: What about the relative viability ([6]; first compound 1.265 µM) of the same molecule?
A: 0.371

Q: What about the relative viability ([6]; first compound 4 µM) of the same molecule?
A: 0.316

Q: And the relative viability ([7]; first compound 0.04 µM)?
A: 0.59

Q: And the relative viability ([7]; first compound 0.1265 µM)?
A: 0.615

Q: And the relative viability ([7]; first compound 0.4 µM)?
A: 0.394

Q: And the relative viability ([7]; first compound 1.265 µM)?
A: 0.399

Q: What about the relative viability ([7]; first compound 4 µM) of the same molecule?
A: 0.386

Q: And the relative viability ([8]; first compound 0.04 µM)?
A: 0.583

Q: And the relative viability ([8]; first compound 0.1265 µM)?
A: 0.66

Q: And the relative viability ([8]; first compound 0.4 µM)?
A: 0.638

Q: And the relative viability ([8]; first compound 1.265 µM)?
A: 0.646

Q: And the relative viability ([8]; first compound 4 µM)?
A: 0.631

Q: What about the relative viability ([9]; first compound 0.04 µM) of the same molecule?
A: 0.603

Q: What about the relative viability ([9]; first compound 0.1265 µM) of the same molecule?
A: 0.569

Q: What about the relative viability ([9]; first compound 0.4 µM) of the same molecule?
A: 0.492

Q: What about the relative viability ([9]; first compound 1.265 µM) of the same molecule?
A: 0.331

Q: And the relative viability ([9]; first compound 4 µM)?
A: 0.4

Q: What about the relative viability ([10]; first compound 0.04 µM) of the same molecule?
A: 0.607

Q: And the relative viability ([10]; first compound 0.1265 µM)?
A: 0.527

Q: And the relative viability ([10]; first compound 0.4 µM)?
A: 0.611

Q: What about the relative viability ([10]; first compound 1.265 µM) of the same molecule?
A: 0.485

Q: What about the relative viability ([10]; first compound 4 µM) of the same molecule?
A: 0.563

Q: What about the relative viability ([11]; first compound 0.04 µM) of the same molecule?
A: 0.347

Q: And the relative viability ([11]; first compound 0.1265 µM)?
A: 0.521

Q: And the relative viability ([11]; first compound 1.265 µM)?
A: 0.464

Q: And the relative viability ([11]; first compound 4 µM)?
A: 0.334

Q: And the relative viability ([12]; first compound 0.04 µM)?
A: 0.622

Q: And the relative viability ([12]; first compound 0.1265 µM)?
A: 0.63

Q: And the relative viability ([12]; first compound 0.4 µM)?
A: 0.613

Q: What about the relative viability ([12]; first compound 1.265 µM) of the same molecule?
A: 0.566

Q: What about the relative viability ([12]; first compound 4 µM) of the same molecule?
A: 0.648

Q: And the relative viability ([13]; first compound 0.04 µM)?
A: 0.363

Q: What about the relative viability ([13]; first compound 0.1265 µM) of the same molecule?
A: 0.448

Q: What about the relative viability ([13]; first compound 0.4 µM) of the same molecule?
A: 0.388

Q: And the relative viability ([13]; first compound 1.265 µM)?
A: 0.25

Q: And the relative viability ([13]; first compound 4 µM)?
A: 0.274

Q: And the relative viability ([14]; first compound 0.1265 µM)?
A: 0.269

Q: What about the relative viability ([14]; first compound 0.4 µM) of the same molecule?
A: 0.236

Q: And the relative viability ([14]; first compound 4 µM)?
A: 0.177

Q: What about the relative viability ([15]; first compound 0.04 µM) of the same molecule?
A: 0.341

Q: What about the relative viability ([15]; first compound 0.1265 µM) of the same molecule?
A: 0.419

Q: And the relative viability ([15]; first compound 0.4 µM)?
A: 0.3

Q: And the relative viability ([15]; first compound 1.265 µM)?
A: 0.253

Q: What about the relative viability ([15]; first compound 4 µM) of the same molecule?
A: 0.237

Q: And the relative viability ([16]; first compound 0.04 µM)?
A: 0.241

Q: What about the relative viability ([16]; first compound 0.1265 µM) of the same molecule?
A: 0.148

Q: What about the relative viability ([16]; first compound 0.4 µM) of the same molecule?
A: 0.181

Q: And the relative viability ([16]; first compound 1.265 µM)?
A: 0.169

Q: What about the relative viability ([16]; first compound 4 µM) of the same molecule?
A: 0.172

Q: And the relative viability ([17]; first compound 0.04 µM)?
A: 0.378

Q: What about the relative viability ([17]; first compound 0.1265 µM) of the same molecule?
A: 0.578

Q: And the relative viability ([17]; first compound 0.4 µM)?
A: 0.437

Q: What about the relative viability ([17]; first compound 1.265 µM) of the same molecule?
A: 0.121

Q: And the relative viability ([17]; first compound 4 µM)?
A: 0.144

Q: What about the relative viability ([18]; first compound 0.04 µM) of the same molecule?
A: 0.565

Q: And the relative viability ([18]; first compound 0.1265 µM)?
A: 0.585

Q: What about the relative viability ([18]; first compound 0.4 µM) of the same molecule?
A: 0.423

Q: What about the relative viability ([18]; first compound 1.265 µM) of the same molecule?
A: 0.444

Q: And the relative viability ([18]; first compound 4 µM)?
A: 0.353

Q: And the relative viability ([19]; first compound 0.04 µM)?
A: 0.692

Q: And the relative viability ([19]; first compound 0.1265 µM)?
A: 0.673

Q: What about the relative viability ([19]; first compound 0.4 µM) of the same molecule?
A: 0.588

Q: And the relative viability ([19]; first compound 1.265 µM)?
A: 0.234

Q: And the relative viability ([19]; first compound 4 µM)?
A: 0.133

Q: What about the relative viability ([20]; first compound 0.04 µM) of the same molecule?
A: 0.359

Q: And the relative viability ([20]; first compound 0.1265 µM)?
A: 0.333

Q: What about the relative viability ([20]; first compound 0.4 µM) of the same molecule?
A: 0.238

Q: What about the relative viability ([20]; first compound 1.265 µM) of the same molecule?
A: 0.247

Q: And the relative viability ([20]; first compound 4 µM)?
A: 0.173

Q: What about the relative viability ([21]; first compound 0.04 µM) of the same molecule?
A: 0.772

Q: And the relative viability ([21]; first compound 0.1265 µM)?
A: 0.79

Q: What about the relative viability ([21]; first compound 0.4 µM) of the same molecule?
A: 0.646

Q: What about the relative viability ([21]; first compound 1.265 µM) of the same molecule?
A: 0.55

Q: What about the relative viability ([21]; first compound 4 µM) of the same molecule?
A: 0.505

Q: And the relative viability ([22]; first compound 0.04 µM)?
A: 0.501

Q: And the relative viability ([22]; first compound 0.1265 µM)?
A: 0.481

Q: And the relative viability ([22]; first compound 0.4 µM)?
A: 0.448

Q: What about the relative viability ([22]; first compound 4 µM) of the same molecule?
A: 0.293

Q: What about the relative viability ([23]; first compound 0.04 µM) of the same molecule?
A: 0.714

Q: What about the relative viability ([23]; first compound 0.1265 µM) of the same molecule?
A: 0.719

Q: What about the relative viability ([23]; first compound 0.4 µM) of the same molecule?
A: 0.724

Q: What about the relative viability ([23]; first compound 4 µM) of the same molecule?
A: 0.535

Q: And the relative viability ([24]; first compound 0.04 µM)?
A: 0.536

Q: And the relative viability ([24]; first compound 0.1265 µM)?
A: 0.504

Q: And the relative viability ([24]; first compound 0.4 µM)?
A: 0.52

Q: And the relative viability ([24]; first compound 1.265 µM)?
A: 0.532

Q: What about the relative viability ([24]; first compound 4 µM) of the same molecule?
A: 0.536
